Experimental data as given in the CheMixHub viscosity set.

Assay: xn = mol fraction of the nth substance listed

C[N+](=O)[O-] + CCCO
viscosity [mPa·s]
Settings | 293.15 K | 298.15 K | 303.15 K | 313.15 K
101 kPa, x1 = 0.1338 | – | 1.55 | – | –
101 kPa, x1 = 0.2584 | – | 1.24 | – | –
101 kPa, x1 = 0.3737 | – | 1.011 | – | –
101 kPa, x1 = 0.4815 | – | 0.8394 | – | –
101 kPa, x1 = 0.5819 | – | 0.7389 | – | –
101 kPa, x1 = 0.6764 | – | 0.6772 | – | –
101 kPa, x1 = 0.7649 | – | 0.6555 | – | –
101 kPa, x1 = 0.8479 | – | 0.6441 | – | –
101 kPa, x1 = 0.9262 | – | 0.6388 | – | –
101.33 kPa, x2 = 0.0501 | 0.636 | – | 0.565 | 0.508
101.33 kPa, x2 = 0.1001 | 0.633 | – | 0.56 | 0.501
101.33 kPa, x2 = 0.1501 | 0.64 | – | 0.563 | 0.502
101.33 kPa, x2 = 0.2 | 0.656 | – | 0.574 | 0.508
101.33 kPa, x2 = 0.25 | 0.681 | – | 0.591 | 0.519
101.33 kPa, x2 = 0.3001 | 0.713 | – | 0.612 | 0.534
101.33 kPa, x2 = 0.3501 | 0.753 | – | 0.639 | 0.553
101.33 kPa, x2 = 0.4001 | 0.795 | – | 0.67 | 0.576
101.33 kPa, x2 = 0.45 | 0.843 | – | 0.704 | 0.6
101.33 kPa, x2 = 0.5 | 0.892 | – | 0.74 | 0.629
101.33 kPa, x2 = 0.5501 | 0.949 | – | 0.785 | 0.661
101.33 kPa, x2 = 0.6001 | 1.01 | – | 0.832 | 0.697
101.33 kPa, x2 = 0.65 | 1.081 | – | 0.886 | 0.739
101.33 kPa, x2 = 0.7 | 1.162 | – | 0.95 | 0.789
101.33 kPa, x2 = 0.75 | 1.26 | – | 1.023 | 0.845
101.33 kPa, x2 = 0.8 | 1.375 | – | 1.112 | 0.912
101.33 kPa, x2 = 0.85 | 1.519 | – | 1.218 | 0.993
101.33 kPa, x2 = 0.9 | 1.693 | – | 1.349 | 1.094
101.33 kPa, x2 = 0.95 | 1.911 | – | 1.51 | 1.214

ClC1CCCCC1 + CC(C)CO
viscosity [mPa·s], 101.33 kPa
Settings | x1 = 0.1018 | x1 = 0.2015 | x1 = 0.3066 | x1 = 0.4073 | x1 = 0.5034 | x1 = 0.5996 | x1 = 0.7053 | x1 = 0.8003 | x1 = 0.8949
298.15 K | 2.771 | 2.342 | 2.035 | 1.835 | 1.687 | 1.597 | 1.525 | 1.5 | 1.5
313.15 K | 1.784 | 1.555 | 1.393 | 1.284 | 1.223 | 1.181 | 1.146 | 1.132 | 1.144

ClC1CCCCC1 + C1CCOC1
viscosity [mPa·s], 101.3 kPa
Settings | x2 = 0.1036 | x2 = 0.2057 | x2 = 0.3029 | x2 = 0.4018 | x2 = 0.5079 | x2 = 0.6003 | x2 = 0.7026 | x2 = 0.8045 | x2 = 0.9032
298.15 K | 1.38 | 1.22 | 1.087 | 0.9655 | 0.8521 | 0.7631 | 0.6748 | 0.5979 | 0.5278
313.15 K | 1.085 | 0.9721 | 0.8761 | 0.7866 | 0.7016 | 0.6344 | 0.5652 | 0.5038 | 0.4475

ClC1CCCCC1 + CC1CCCO1
viscosity [mPa·s], 101.3 kPa
Settings | x2 = 0.0984 | x2 = 0.1994 | x2 = 0.2986 | x2 = 0.4009 | x2 = 0.4991 | x2 = 0.5995 | x2 = 0.701 | x2 = 0.802 | x2 = 0.8995
298.15 K | 1.367 | 1.195 | 1.055 | 0.9325 | 0.8311 | 0.742 | 0.6638 | 0.5963 | 0.5378
313.15 K | 1.075 | 0.9535 | 0.8519 | 0.7611 | 0.6848 | 0.6167 | 0.5561 | 0.5018 | 0.4546

CCCCC(CC)COP(=O)(O)OCC(CC)CCCC (stereo not given) + CCCCO
303.15 K, 101 kPa
Settings | viscosity [mPa·s]
x1 = 0.0419 | 2.97
x1 = 0.0842 | 3.693
x1 = 0.1206 | 4.321
x1 = 0.2162 | 6.156
x1 = 0.3122 | 8.132
x1 = 0.4528 | 11.18
x1 = 0.5519 | 12.85
x1 = 0.6567 | 14.57
x1 = 0.761 | 16.12
x1 = 0.8628 | 17.52
x1 = 0.9345 | 18.4

N + O=[N+]([O-])[O-].O=[N+]([O-])[O-].[Ca+2]
293.15 K, 101 kPa
Settings | viscosity [mPa·s]
x2 = 0.01 | 0.17
x2 = 0.02 | 0.238
x2 = 0.042 | 0.355
x2 = 0.087 | 0.783

CC(=O)c1ccc(C)cc1 + CNC(C)=O
308.15 K, 101 kPa
Settings | viscosity [mPa·s]
x1 = 0.0617 | 3.091
x1 = 0.1321 | 2.867
x1 = 0.2004 | 2.666
x1 = 0.2836 | 2.469
x1 = 0.3629 | 2.286
x1 = 0.4632 | 2.08
x1 = 0.5582 | 1.927
x1 = 0.689 | 1.722
x1 = 0.8305 | 1.588

CCC1(C)OC1C#N (stereo not given) + ClC(Cl)(Cl)Cl
viscosity [mPa·s], 101 kPa
Settings | 293.15 K | 298.15 K | 303.15 K | 313.15 K | 323.15 K
x1 = 0.0076 | 0.977 | 0.906 | 0.875 | 0.75 | 0.646
x1 = 0.008 | 0.983 | 0.938 | 0.873 | 0.776 | 0.698

Cc1cccc(O)c1 + C1CCCCC1
308.15 K, 101 kPa
Settings | viscosity [mPa·s]
x1 = 0.0832 | 0.8736
x1 = 0.289 | 1.288
x1 = 0.3627 | 1.541
x1 = 0.4467 | 1.863
x1 = 0.5201 | 2.175
x1 = 0.5859 | 2.547
x1 = 0.7213 | 3.745
x1 = 0.8473 | 5.244
x1 = 0.9032 | 6.428

CCCC[N+](CCCC)(CCCC)CCCC.O=[N+]([O-])[O-] + O
viscosity [mPa·s], 101 kPa
Settings | 298.15 K | 308.15 K | 318.15 K | 323.15 K
x1 = 0.000175 | 0.9058 | 0.7311 | 0.6051 | 0.5548
x1 = 0.0007208 | 0.9399 | 0.7555 | 0.6231 | 0.5704
x1 = 0.0009037 | 0.9512 | 0.7635 | 0.629 | 0.5756
x1 = 0.001282 | 0.9739 | 0.7798 | 0.6411 | 0.586
x1 = 0.001513 | 0.9877 | 0.7898 | 0.6484 | 0.5923
x1 = 0.002132 | 1.024 | 0.8156 | 0.6675 | 0.609
x1 = 0.00641 | 1.328 | 1.024 | 0.8259 | 0.747
x1 = 0.006556 | 1.335 | 1.035 | 0.8318 | 0.7536
x1 = 0.009813 | 1.592 | 1.21 | 0.9594 | 0.8647
x1 = 0.0134 | 1.907 | 1.431 | 1.107 | 1.002
x1 = 0.0182 | 2.346 | 1.735 | 1.333 | 1.182
x1 = 0.01938 | 2.474 | 1.813 | 1.399 | 1.241
x1 = 0.02698 | 3.292 | 2.346 | 1.808 | 1.573
x1 = 0.03856 | 4.744 | 3.175 | 2.424 | 2.123
x1 = 0.06582 | 8.699 | 5.748 | 4.183 | 3.578
x1 = 0.08624 | 12.21 | 7.98 | 5.611 | 4.732
x1 = 0.1165 | 18.05 | 11.05 | 7.815 | 6.642

CCCC[n+]1cc[nH]c1.O=S(=O)([N-]S(=O)(=O)C(F)(F)F)C(F)(F)F + N
Settings | viscosity [mPa·s]
313.2 K, 101.33 kPa, x2 = 0.7076 | 9.866

CCCCOC(=O)C(C)O (stereo not given) + CC(O)CO
101 kPa
Settings | viscosity [mPa·s]
293.15 K, x1 = 0.3 | 17.35
293.15 K, x1 = 0.6996 | 6.325
303.15 K, x1 = 0.0999 | 21.45
308.15 K, x1 = 0.3999 | 6.935
323.15 K, x1 = 0.2 | 6.665
323.15 K, x1 = 0.4998 | 3.435

O=c1ccn([C@@H]2O[C@H](CO)C(O)C2O)c(=O)[nH]1 (stereo not given in full) + O
viscosity [mPa·s], 101.3 kPa
Settings | 293.15 K | 298.15 K | 303.15 K | 308.15 K | 313.15 K | 318.15 K
x1 = 0.0001846 | – | 0.895 | – | 0.723 | – | 0.599
x1 = 0.0002557 | – | 0.897 | – | 0.724 | – | 0.601
x1 = 0.00027 | 1.006 | 0.895 | 0.807 | 0.738 | 0.623 | –
x1 = 0.000318 | – | 0.898 | – | 0.726 | – | 0.602
x1 = 0.000355 | 1.008 | 0.897 | 0.809 | 0.74 | 0.625 | –
x1 = 0.0003955 | – | 0.9 | – | 0.727 | – | 0.603
x1 = 0.000448 | 1.01 | 0.899 | 0.811 | 0.742 | 0.627 | –
x1 = 0.0005076 | – | 0.902 | – | 0.729 | – | 0.605
x1 = 0.000533 | 1.012 | 0.901 | 0.813 | 0.744 | 0.628 | –
x1 = 0.0005591 | – | 0.904 | – | 0.731 | – | 0.606
x1 = 0.00063 | 1.014 | 0.903 | 0.815 | 0.746 | 0.63 | –
x1 = 0.00072 | 1.016 | 0.905 | 0.817 | 0.748 | 0.632 | –

C[N+](=O)[O-] + CC(C)CO
298.15 K, 101 kPa
Settings | viscosity [mPa·s]
x1 = 0.1592 | 2.304
x1 = 0.2992 | 1.779
x1 = 0.4225 | 1.382
x1 = 0.5327 | 1.108
x1 = 0.6306 | 0.9667
x1 = 0.7193 | 0.822
x1 = 0.7993 | 0.7537
x1 = 0.8724 | 0.7066
x1 = 0.9387 | 0.6682
